Laboratory results published in PubChem BioAssay (NCI).
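Where inhibition never reached the appropriate level, the endpoint shown equals the highest concentration tested. Otherwise, values were interpolated linearly from a five-concentration, 48-hour dose response in 96-well plates. GI50 is the concentration that inhibits growth by half. At the TGI there is no net growth.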

Legend:
Test in all cases: growth of human tumour cells (NCI), 48 h
U251 CNS = tested on: U251 CNS
EKVX NSCLC = tested on: EKVX NSCLC
BT-549 breast = tested on: BT-549 breast
HCC-2998 colon = tested on: HCC-2998 colon
HCT-15 colon = tested on: HCT-15 colon
SK-MEL-5 melanoma = tested on: SK-MEL-5 melanoma
SW-620 colon = tested on: SW-620 colon
MDA-MB-435 = tested on: MDA-MB-435
OVCAR-3 ovarian = tested on: OVCAR-3 ovarian
UACC-257 melanoma = tested on: UACC-257 melanoma
IGROV1 ovarian = tested on: IGROV1 ovarian
HOP-92 NSCLC = tested on: HOP-92 NSCLC
SF-268 CNS = tested on: SF-268 CNS
TK-10 renal = tested on: TK-10 renal
NCI-H226 lung = tested on: NCI-H226 lung
HL-60(TB) leukemia = tested on: HL-60(TB) leukemia
SF-295 CNS = tested on: SF-295 CNS
M14 melanoma = tested on: M14 melanoma
HT29 colon = tested on: HT29 colon
NCI-H522 lung = tested on: NCI-H522 lung
NCI-H23 lung = tested on: NCI-H23 lung
RXF 393 renal = tested on: RXF 393 renal
SNB-75 CNS = tested on: SNB-75 CNS
KM12 colon = tested on: KM12 colon
OVCAR-5 ovarian = tested on: OVCAR-5 ovarian
MOLT-4 leukemia = tested on: MOLT-4 leukemia
SK-MEL-28 melanoma = tested on: SK-MEL-28 melanoma
K-562 leukemia = tested on: K-562 leukemia
UACC-62 melanoma = tested on: UACC-62 melanoma
786-0 renal = tested on: 786-0 renal
A549 NSCLC = tested on: A549 NSCLC
ACHN renal = tested on: ACHN renal
SK-OV-3 ovarian = tested on: SK-OV-3 ovarian
SF-539 CNS = tested on: SF-539 CNS
SK-MEL-2 melanoma = tested on: SK-MEL-2 melanoma
HCT-116 colon = tested on: HCT-116 colon
UO-31 renal = tested on: UO-31 renal
PC-3 prostate = tested on: PC-3 prostate
NCI-H460 lung = tested on: NCI-H460 lung
T-47D breast = tested on: T-47D breast
SNB-19 CNS = tested on: SNB-19 CNS
MDA-MB-231 breast = tested on: MDA-MB-231 breast
CAKI-1 renal = tested on: CAKI-1 renal
SR leukemia = tested on: SR leukemia
OVCAR-4 ovarian = tested on: OVCAR-4 ovarian
DU-145 prostate = tested on: DU-145 prostate
CCRF-CEM leukemia = tested on: CCRF-CEM leukemia
HOP-62 NSCLC = tested on: HOP-62 NSCLC
COLO 205 colon = tested on: COLO 205 colon
NCI/ADR-RES ovarian = tested on: NCI/ADR-RES ovarian
SN12C renal = tested on: SN12C renal
MCF7 breast = tested on: MCF7 breast
OVCAR-8 ovarian = tested on: OVCAR-8 ovarian
RPMI-8226 leukemia = tested on: RPMI-8226 leukemia
A498 renal = tested on: A498 renal
HS 578T breast = tested on: HS 578T breast
LOX IMVI melanoma = tested on: LOX IMVI melanoma
MALME-3M melanoma = tested on: MALME-3M melanoma

COC(=O)[C@H]1CO[C@H]2C/C(C)=C/CC/C(C)=C/CC[C@@]3(C)O[C@@H]3C[C@H]21
TGI (U251 CNS): > 50 µM | TGI (EKVX NSCLC): > 50 µM | TGI (BT-549 breast): 33.8 µM | TGI (HCC-2998 colon): 17.9 µM | TGI (HCT-15 colon): 19.9 µM | TGI (SK-MEL-5 melanoma): 15.5 µM | TGI (SW-620 colon): 24.2 µM | TGI (MDA-MB-435): 25.1 µM | TGI (OVCAR-3 ovarian): 47.3 µM | TGI (UACC-257 melanoma): > 50 µM | TGI (IGROV1 ovarian): > 50 µM | TGI (HOP-92 NSCLC): > 50 µM | TGI (SF-268 CNS): > 50 µM | TGI (TK-10 renal): > 50 µM | TGI (NCI-H226 lung): 29.2 µM | TGI (HL-60(TB) leukemia): 26.2 µM | TGI (SF-295 CNS): > 50 µM | TGI (M14 melanoma): > 50 µM | TGI (HT29 colon): > 50 µM | TGI (NCI-H522 lung): 18.8 µM | TGI (NCI-H23 lung): > 50 µM | TGI (RXF 393 renal): 42.6 µM | TGI (SNB-75 CNS): 39.2 µM | TGI (KM12 colon): 18.4 µM | TGI (OVCAR-5 ovarian): > 50 µM | TGI (MOLT-4 leukemia): 28.7 µM | TGI (SK-MEL-28 melanoma): 34.9 µM | TGI (K-562 leukemia): 16.1 µM | TGI (UACC-62 melanoma): 18.2 µM | TGI (786-0 renal): > 50 µM | TGI (A549 NSCLC): > 50 µM | TGI (ACHN renal): > 50 µM | TGI (SK-OV-3 ovarian): > 50 µM | TGI (SF-539 CNS): > 50 µM | TGI (SK-MEL-2 melanoma): > 50 µM | TGI (HCT-116 colon): 24.9 µM | TGI (UO-31 renal): > 50 µM | TGI (PC-3 prostate): > 50 µM | TGI (NCI-H460 lung): 21.9 µM | TGI (T-47D breast): > 50 µM | TGI (SNB-19 CNS): > 50 µM | TGI (MDA-MB-231 breast): 40.6 µM | TGI (CAKI-1 renal): > 50 µM | TGI (SR leukemia): 27.1 µM | TGI (OVCAR-4 ovarian): > 50 µM | TGI (DU-145 prostate): > 50 µM | TGI (CCRF-CEM leukemia): 28.1 µM | TGI (HOP-62 NSCLC): > 50 µM | TGI (COLO 205 colon): 22.6 µM | TGI (NCI/ADR-RES ovarian): 29 µM | TGI (SN12C renal): 24.3 µM | TGI (MCF7 breast): > 50 µM | TGI (OVCAR-8 ovarian): > 50 µM | TGI (RPMI-8226 leukemia): > 50 µM | TGI (A498 renal): > 50 µM | TGI (HS 578T breast): 36.5 µM

Nc1[nH]nc2nc(-c3cccs3)cc(C(F)(F)F)c12
GI50 (U251 CNS): > 23.7 µM | TGI (U251 CNS): > 25 µM | GI50 (BT-549 breast): > 24.1 µM | TGI (BT-549 breast): > 25 µM | GI50 (HCC-2998 colon): > 25 µM | TGI (HCC-2998 colon): > 25 µM | GI50 (HCT-15 colon): > 25 µM | TGI (HCT-15 colon): > 25 µM | GI50 (LOX IMVI melanoma): > 25 µM | TGI (LOX IMVI melanoma): > 25 µM | GI50 (SK-MEL-5 melanoma): > 25 µM | TGI (SK-MEL-5 melanoma): > 25 µM | GI50 (SW-620 colon): > 25 µM | TGI (SW-620 colon): > 25 µM | GI50 (MDA-MB-435): > 25 µM | TGI (MDA-MB-435): > 25 µM | GI50 (OVCAR-3 ovarian): > 25 µM | TGI (OVCAR-3 ovarian): > 25 µM | GI50 (UACC-257 melanoma): > 25 µM | TGI (UACC-257 melanoma): > 25 µM | GI50 (IGROV1 ovarian): > 25 µM | TGI (IGROV1 ovarian): > 25 µM | GI50 (HOP-92 NSCLC): > 14.1 µM | TGI (HOP-92 NSCLC): > 25 µM | GI50 (SF-268 CNS): > 25 µM | TGI (SF-268 CNS): > 25 µM | GI50 (MALME-3M melanoma): > 25 µM | TGI (MALME-3M melanoma): > 25 µM | GI50 (TK-10 renal): > 19.2 µM | TGI (TK-10 renal): > 25 µM | GI50 (NCI-H226 lung): > 23.2 µM | TGI (NCI-H226 lung): > 25 µM | GI50 (HL-60(TB) leukemia): > 25 µM | TGI (HL-60(TB) leukemia): > 25 µM | GI50 (SF-295 CNS): > 25 µM | TGI (SF-295 CNS): > 25 µM | GI50 (M14 melanoma): > 25 µM | TGI (M14 melanoma): > 25 µM | GI50 (HT29 colon): > 25 µM | TGI (HT29 colon): > 25 µM | GI50 (NCI-H522 lung): > 13.9 µM | TGI (NCI-H522 lung): > 25 µM | GI50 (NCI-H23 lung): > 25 µM | TGI (NCI-H23 lung): > 25 µM | GI50 (RXF 393 renal): 18.9 µM | TGI (RXF 393 renal): > 25 µM | GI50 (SNB-75 CNS): > 25 µM | TGI (SNB-75 CNS): > 25 µM | GI50 (KM12 colon): 12 µM | TGI (KM12 colon): > 25 µM | GI50 (OVCAR-5 ovarian): > 25 µM | TGI (OVCAR-5 ovarian): > 25 µM | GI50 (SK-MEL-28 melanoma): > 25 µM | TGI (SK-MEL-28 melanoma): > 25 µM | GI50 (K-562 leukemia): > 25 µM | TGI (K-562 leukemia): > 25 µM | GI50 (UACC-62 melanoma): > 25 µM | TGI (UACC-62 melanoma): > 25 µM | GI50 (786-0 renal): > 25 µM | TGI (786-0 renal): > 25 µM | GI50 (A549 NSCLC): 24.3 µM | TGI (A549 NSCLC): > 25 µM | GI50 (ACHN renal): > 21.6 µM | TGI (ACHN renal): > 25 µM | GI50 (SK-OV-3 ovarian): > 25 µM | TGI (SK-OV-3 ovarian): > 25 µM | GI50 (SF-539 CNS): > 25 µM | TGI (SF-539 CNS): > 25 µM | GI50 (SK-MEL-2 melanoma): > 22.3 µM | TGI (SK-MEL-2 melanoma): > 25 µM | GI50 (HCT-116 colon): > 17.9 µM | TGI (HCT-116 colon): > 25 µM | GI50 (UO-31 renal): > 25 µM | TGI (UO-31 renal): > 25 µM | GI50 (PC-3 prostate): > 25 µM | TGI (PC-3 prostate): > 25 µM | GI50 (NCI-H460 lung): > 25 µM | TGI (NCI-H460 lung): > 25 µM | GI50 (T-47D breast): > 25 µM | TGI (T-47D breast): > 25 µM | GI50 (SNB-19 CNS): > 25 µM | TGI (SNB-19 CNS): > 25 µM | GI50 (MDA-MB-231 breast): > 25 µM | TGI (MDA-MB-231 breast): > 25 µM | GI50 (CAKI-1 renal): > 20.3 µM | TGI (CAKI-1 renal): > 25 µM | GI50 (SR leukemia): > 13.7 µM | TGI (SR leukemia): > 25 µM | GI50 (OVCAR-4 ovarian): > 25 µM | TGI (OVCAR-4 ovarian): > 25 µM | GI50 (DU-145 prostate): > 25 µM | TGI (DU-145 prostate): > 25 µM | GI50 (HOP-62 NSCLC): > 25 µM | TGI (HOP-62 NSCLC): > 25 µM | GI50 (COLO 205 colon): > 25 µM | TGI (COLO 205 colon): > 25 µM | GI50 (NCI/ADR-RES ovarian): > 25 µM | TGI (NCI/ADR-RES ovarian): > 25 µM | GI50 (SN12C renal): > 25 µM | TGI (SN12C renal): > 25 µM | GI50 (MCF7 breast): > 15.8 µM | TGI (MCF7 breast): > 25 µM | GI50 (OVCAR-8 ovarian): > 25 µM | TGI (OVCAR-8 ovarian): > 25 µM | GI50 (RPMI-8226 leukemia): > 25 µM | TGI (RPMI-8226 leukemia): > 25 µM | GI50 (A498 renal): > 23.7 µM | TGI (A498 renal): > 25 µM | GI50 (HS 578T breast): > 25 µM | TGI (HS 578T breast): > 25 µM
